16 compounds from ChEMBL document CHEMBL1795255, “Discovery and optimization of potent and selective benzonaphthyridinone analogs as small molecule mTOR inhibitors with improved mouse microsome stability” (Bioorg Med Chem Lett, 2011) can be followed below.

Data set [1] concerns the target Serine/threonine-protein kinase mTOR (Mus musculus, UniProt Q9JLN9). As to the kind of experiment: Inhibition of mTOR-dependent S6K phosphorylation at T389 residue in MEF cells. It is filed as cell-based.
The nature of data set [2]: Inhibition of mTORC1.
Data set [3] in a line: Inhibition of PI3K-dependent Akt phosphorylation at T308 residue in human PC3 cells. The data set is classed as cell-based. The settings on record: PC-3.
Data set [4] has as its target T1, Serine/threonine-protein kinase mTOR (Homo sapiens, UniProt P42345). The experiment in a line: Inhibition of mTOR-dependent AKT phosphorylation at S473 residue in liver at 20 mg/kg after 6 hrs by in vivo pharmacodynamic study. The data set is classed as organism-based. Also noted: dose 20 mg/kg.
The target of data set [5] is Phosphatidylinositol 3-kinase catalytic subunit type 3 (Homo sapiens, UniProt Q8NEB9). The experiment in a line: Inhibition of human VPS34.
The target of data set [6] is Phosphatidylinositol 4-phosphate 3-kinase C2 domain-containing subunit alpha (Homo sapiens, UniProt O00443). The experiment in a line: Inhibition of PI3K C2alpha.
A short description of data set [7]: AUC (0 to infinity) in po dosed mouse. Set-up: route oral, time infinity. The settings on record: plasma. The data set is classed as ADME, organism-based.
For data set [8], the target named is PI3-kinase p110-alpha/p85-alpha (Homo sapiens, UniProt P42336). As to the kind of experiment: Inhibition of P110alpha/p85alpha. The data set is classed as protein-complex assay.
Data set [9] addresses CYP3A4 (Homo sapiens, UniProt P08684). The experiment in a line: Inhibition of CYP3A4 at 10 uM. It is filed as ADME.
Data set [10] in a line: (§1) Volume of distribution at steady state in iv dosed mouse. The data set is classed as ADME, organism-based. The settings on record: in vivo, read-out: Vdss.
The nature of data set [11]: AUC (0 to infinity) in iv dosed mouse. It is filed as ADME, organism-based. Set-up: time infinity, route intravenous. The settings on record: plasma.
A short description of data set [12]: Clearance in iv dosed mouse. To be noted: in vivo. It is filed as ADME, organism-based.
Data set [13] concerns the target Phosphatidylinositol 4-kinase alpha (Homo sapiens, UniProt P42356). The experiment in a line: Inhibition of PI4K alpha.
Data set [14] is described as follows: Oral bioavailability in mouse. The data set is classed as ADME, organism-based. The settings on record: in vivo.
Data set [15] concerns the target T1, Serine/threonine-protein kinase mTOR. The experiment in a line: Inhibition of mTOR.
The target in data set [16] is Phosphatidylinositol 4-phosphate 3-kinase C2 domain-containing subunit beta (Homo sapiens, UniProt O00750). The experiment in a line: Inhibition of PI3K C2beta.
Chain of Phosphatidylinositol 4-phosphate 3-kinase C2 domain-containing subunit beta (O00750 whole entry, the tested form may be a part): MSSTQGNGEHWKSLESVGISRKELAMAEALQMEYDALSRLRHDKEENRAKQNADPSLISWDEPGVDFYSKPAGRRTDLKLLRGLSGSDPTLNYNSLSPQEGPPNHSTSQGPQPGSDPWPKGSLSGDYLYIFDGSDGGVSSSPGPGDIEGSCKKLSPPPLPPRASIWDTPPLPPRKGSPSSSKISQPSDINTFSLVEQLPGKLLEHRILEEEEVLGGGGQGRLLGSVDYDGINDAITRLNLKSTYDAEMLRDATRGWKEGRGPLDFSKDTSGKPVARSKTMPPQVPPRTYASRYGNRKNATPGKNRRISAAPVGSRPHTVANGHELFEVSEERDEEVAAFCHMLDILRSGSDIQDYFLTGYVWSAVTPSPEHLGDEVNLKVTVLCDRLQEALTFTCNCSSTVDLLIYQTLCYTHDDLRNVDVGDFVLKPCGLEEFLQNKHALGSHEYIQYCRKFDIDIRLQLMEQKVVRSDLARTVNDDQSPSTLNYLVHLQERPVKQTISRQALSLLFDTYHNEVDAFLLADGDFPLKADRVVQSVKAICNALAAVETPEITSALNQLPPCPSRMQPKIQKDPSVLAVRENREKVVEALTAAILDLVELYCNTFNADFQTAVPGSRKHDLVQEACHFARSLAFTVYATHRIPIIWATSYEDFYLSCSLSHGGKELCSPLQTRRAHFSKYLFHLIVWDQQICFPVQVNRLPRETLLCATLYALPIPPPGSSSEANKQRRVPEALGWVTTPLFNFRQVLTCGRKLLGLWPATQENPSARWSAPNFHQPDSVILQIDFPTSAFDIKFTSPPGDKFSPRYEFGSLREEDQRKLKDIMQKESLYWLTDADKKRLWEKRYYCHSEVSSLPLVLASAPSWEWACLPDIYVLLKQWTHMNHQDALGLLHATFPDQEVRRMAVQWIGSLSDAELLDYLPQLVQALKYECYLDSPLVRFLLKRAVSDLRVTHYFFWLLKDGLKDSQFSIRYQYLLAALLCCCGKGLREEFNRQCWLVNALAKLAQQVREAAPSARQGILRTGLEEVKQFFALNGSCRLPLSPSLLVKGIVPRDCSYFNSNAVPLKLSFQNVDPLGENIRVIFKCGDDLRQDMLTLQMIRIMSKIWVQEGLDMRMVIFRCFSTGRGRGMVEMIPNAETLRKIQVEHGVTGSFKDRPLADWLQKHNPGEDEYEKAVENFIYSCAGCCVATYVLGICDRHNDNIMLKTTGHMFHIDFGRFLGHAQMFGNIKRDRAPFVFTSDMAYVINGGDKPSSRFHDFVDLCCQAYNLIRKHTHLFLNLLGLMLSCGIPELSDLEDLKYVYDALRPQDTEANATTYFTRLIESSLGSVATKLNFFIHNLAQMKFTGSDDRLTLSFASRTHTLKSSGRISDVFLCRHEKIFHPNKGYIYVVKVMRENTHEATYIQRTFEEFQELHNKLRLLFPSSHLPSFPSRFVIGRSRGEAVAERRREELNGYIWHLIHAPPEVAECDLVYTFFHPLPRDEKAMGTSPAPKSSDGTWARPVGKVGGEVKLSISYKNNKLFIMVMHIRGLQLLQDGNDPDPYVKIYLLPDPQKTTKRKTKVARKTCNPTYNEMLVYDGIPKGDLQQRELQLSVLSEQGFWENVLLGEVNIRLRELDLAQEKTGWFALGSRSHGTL
Data set [17] is described as follows: Half life in iv dosed mouse. It is filed as ADME, organism-based. To be noted: in vivo.
Data set [18] deals with T1, Serine/threonine-protein kinase mTOR. The experiment in a line: Inhibition of mTOR-dependent S6K phosphorylation at T389 residue in lung at 20 mg/kg after 6 hrs by in vivo pharmacodynamic study. It is filed as organism-based. Set-up: dose 20 mg/kg.
Data set [19] can be described thus: (§2) Tmax in po dosed mouse. The settings on record: in vivo. The data set is classed as ADME, organism-based.
Data set [20] concerns the target T1, Serine/threonine-protein kinase mTOR. The experiment in a line: Inhibition of mTOR-dependent S6K phosphorylation at T389 residue in liver at 20 mg/kg after 6 hrs by in vivo pharmacodynamic study. It is filed as organism-based. Set-up: dose 20 mg/kg.
Data set [21] in a line: (§3) Cmax in po dosed mouse. The data set is classed as ADME, organism-based. Also noted: route oral. The settings on record: in vivo.
For data set [22], the target named is Phosphatidylinositol 4-kinase beta (Homo sapiens, UniProt Q9UBF8). As to the kind of experiment: Inhibition of PI4K beta.
Chain of Phosphatidylinositol 4-kinase beta (Q9UBF8 whole entry): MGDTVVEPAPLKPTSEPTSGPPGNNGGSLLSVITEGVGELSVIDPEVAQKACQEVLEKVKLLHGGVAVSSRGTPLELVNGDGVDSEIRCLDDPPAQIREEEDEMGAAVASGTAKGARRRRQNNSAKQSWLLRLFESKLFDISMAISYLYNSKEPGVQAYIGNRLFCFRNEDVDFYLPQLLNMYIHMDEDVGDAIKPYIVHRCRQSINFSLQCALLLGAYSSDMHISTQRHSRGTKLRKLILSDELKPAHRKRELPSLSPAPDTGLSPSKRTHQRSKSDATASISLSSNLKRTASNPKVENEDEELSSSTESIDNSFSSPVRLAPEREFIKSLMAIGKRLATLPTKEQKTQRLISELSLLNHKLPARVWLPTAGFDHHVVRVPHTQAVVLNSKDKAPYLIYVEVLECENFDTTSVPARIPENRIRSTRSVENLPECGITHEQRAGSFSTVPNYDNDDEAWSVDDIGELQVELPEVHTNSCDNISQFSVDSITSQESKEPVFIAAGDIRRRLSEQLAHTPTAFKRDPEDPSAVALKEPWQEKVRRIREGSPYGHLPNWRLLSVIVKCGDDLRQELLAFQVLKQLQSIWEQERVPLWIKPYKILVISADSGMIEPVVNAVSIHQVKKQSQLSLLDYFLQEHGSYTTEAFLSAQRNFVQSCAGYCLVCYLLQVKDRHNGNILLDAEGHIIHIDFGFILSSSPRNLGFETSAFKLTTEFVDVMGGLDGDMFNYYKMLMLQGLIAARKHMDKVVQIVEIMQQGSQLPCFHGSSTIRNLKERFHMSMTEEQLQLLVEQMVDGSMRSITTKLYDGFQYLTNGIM
In data set [23] the target is T1, Serine/threonine-protein kinase mTOR. The experiment in a line: Inhibition of mTOR-dependent AKT phosphorylation at S473 residue in lung at 20 mg/kg after 6 hrs by in vivo pharmacodynamic study. The data set is classed as organism-based. Set-up: dose 20 mg/kg.
Data set [24] can be described thus: (§4) Cmax in iv dosed mouse. It is filed as ADME, organism-based. Set-up: route intravenous. The settings on record: in vivo.
Data set [25] is described as follows: Metabolic stability in mouse microsomes in presence of NADPH. The data set is classed as ADME, Microsome. To be noted: read-out: Stability.
For data set [26], the system named is Mus musculus. Described as §1. The data set is classed as ADME, organism-based. The settings on record: in vivo.
Data set [27] concerns Mus musculus. The data set is described as §2. The data set is classed as ADME, organism-based. The settings on record: in vivo.
Data set [28] concerns Mus musculus. The description is as §3. Set-up: route oral. To be noted: in vivo. It is filed as ADME, organism-based.
The test system of data set [29] is Mus musculus. Described as §4. To be noted: in vivo. The data set is classed as ADME, organism-based. Set-up: route intravenous.

As a reminder, the EC50 is the concentration at which the effect is half-maximal. Read a low EC50 as higher potency in that assay. Usually IC50 stands for the concentration at which inhibition is half-maximal. The term inhibition denotes how much of the control response was suppressed. A lower inhibition goes with little suppression. As usually defined, the AUC(0-inf) is total exposure, with the tail of the curve extrapolated. Low values mean low exposure, high ones high exposure. As a reminder, the clearance is the rate of elimination divided by the concentration. Usually bioavailability stands for dose-corrected exposure relative to a reference, in per cent. Low readings indicate little systemic uptake, high ones much systemic uptake. The Tmax is the time at which the peak concentration occurs. A word on the Cmax: it is the highest concentration seen after dosing. As a reminder, the Vdss is the apparent volume that relates the amount in the body to the concentration in plasma or blood.

Chain of CYP3A4 (P08684 whole entry): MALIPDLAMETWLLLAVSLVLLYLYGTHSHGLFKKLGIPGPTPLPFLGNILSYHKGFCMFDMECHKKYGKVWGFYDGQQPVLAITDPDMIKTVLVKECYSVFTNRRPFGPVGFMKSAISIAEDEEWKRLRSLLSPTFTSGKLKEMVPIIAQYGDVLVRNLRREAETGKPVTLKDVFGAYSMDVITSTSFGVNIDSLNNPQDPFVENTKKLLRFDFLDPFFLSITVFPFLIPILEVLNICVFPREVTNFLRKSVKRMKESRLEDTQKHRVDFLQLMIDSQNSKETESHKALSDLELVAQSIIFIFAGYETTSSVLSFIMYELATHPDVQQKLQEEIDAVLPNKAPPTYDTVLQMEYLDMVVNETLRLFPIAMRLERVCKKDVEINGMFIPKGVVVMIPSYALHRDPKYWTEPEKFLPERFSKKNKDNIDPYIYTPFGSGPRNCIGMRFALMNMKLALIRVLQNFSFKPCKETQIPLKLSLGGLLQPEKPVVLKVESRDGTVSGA
Chain of Phosphatidylinositol 4-kinase alpha (P42356 whole entry): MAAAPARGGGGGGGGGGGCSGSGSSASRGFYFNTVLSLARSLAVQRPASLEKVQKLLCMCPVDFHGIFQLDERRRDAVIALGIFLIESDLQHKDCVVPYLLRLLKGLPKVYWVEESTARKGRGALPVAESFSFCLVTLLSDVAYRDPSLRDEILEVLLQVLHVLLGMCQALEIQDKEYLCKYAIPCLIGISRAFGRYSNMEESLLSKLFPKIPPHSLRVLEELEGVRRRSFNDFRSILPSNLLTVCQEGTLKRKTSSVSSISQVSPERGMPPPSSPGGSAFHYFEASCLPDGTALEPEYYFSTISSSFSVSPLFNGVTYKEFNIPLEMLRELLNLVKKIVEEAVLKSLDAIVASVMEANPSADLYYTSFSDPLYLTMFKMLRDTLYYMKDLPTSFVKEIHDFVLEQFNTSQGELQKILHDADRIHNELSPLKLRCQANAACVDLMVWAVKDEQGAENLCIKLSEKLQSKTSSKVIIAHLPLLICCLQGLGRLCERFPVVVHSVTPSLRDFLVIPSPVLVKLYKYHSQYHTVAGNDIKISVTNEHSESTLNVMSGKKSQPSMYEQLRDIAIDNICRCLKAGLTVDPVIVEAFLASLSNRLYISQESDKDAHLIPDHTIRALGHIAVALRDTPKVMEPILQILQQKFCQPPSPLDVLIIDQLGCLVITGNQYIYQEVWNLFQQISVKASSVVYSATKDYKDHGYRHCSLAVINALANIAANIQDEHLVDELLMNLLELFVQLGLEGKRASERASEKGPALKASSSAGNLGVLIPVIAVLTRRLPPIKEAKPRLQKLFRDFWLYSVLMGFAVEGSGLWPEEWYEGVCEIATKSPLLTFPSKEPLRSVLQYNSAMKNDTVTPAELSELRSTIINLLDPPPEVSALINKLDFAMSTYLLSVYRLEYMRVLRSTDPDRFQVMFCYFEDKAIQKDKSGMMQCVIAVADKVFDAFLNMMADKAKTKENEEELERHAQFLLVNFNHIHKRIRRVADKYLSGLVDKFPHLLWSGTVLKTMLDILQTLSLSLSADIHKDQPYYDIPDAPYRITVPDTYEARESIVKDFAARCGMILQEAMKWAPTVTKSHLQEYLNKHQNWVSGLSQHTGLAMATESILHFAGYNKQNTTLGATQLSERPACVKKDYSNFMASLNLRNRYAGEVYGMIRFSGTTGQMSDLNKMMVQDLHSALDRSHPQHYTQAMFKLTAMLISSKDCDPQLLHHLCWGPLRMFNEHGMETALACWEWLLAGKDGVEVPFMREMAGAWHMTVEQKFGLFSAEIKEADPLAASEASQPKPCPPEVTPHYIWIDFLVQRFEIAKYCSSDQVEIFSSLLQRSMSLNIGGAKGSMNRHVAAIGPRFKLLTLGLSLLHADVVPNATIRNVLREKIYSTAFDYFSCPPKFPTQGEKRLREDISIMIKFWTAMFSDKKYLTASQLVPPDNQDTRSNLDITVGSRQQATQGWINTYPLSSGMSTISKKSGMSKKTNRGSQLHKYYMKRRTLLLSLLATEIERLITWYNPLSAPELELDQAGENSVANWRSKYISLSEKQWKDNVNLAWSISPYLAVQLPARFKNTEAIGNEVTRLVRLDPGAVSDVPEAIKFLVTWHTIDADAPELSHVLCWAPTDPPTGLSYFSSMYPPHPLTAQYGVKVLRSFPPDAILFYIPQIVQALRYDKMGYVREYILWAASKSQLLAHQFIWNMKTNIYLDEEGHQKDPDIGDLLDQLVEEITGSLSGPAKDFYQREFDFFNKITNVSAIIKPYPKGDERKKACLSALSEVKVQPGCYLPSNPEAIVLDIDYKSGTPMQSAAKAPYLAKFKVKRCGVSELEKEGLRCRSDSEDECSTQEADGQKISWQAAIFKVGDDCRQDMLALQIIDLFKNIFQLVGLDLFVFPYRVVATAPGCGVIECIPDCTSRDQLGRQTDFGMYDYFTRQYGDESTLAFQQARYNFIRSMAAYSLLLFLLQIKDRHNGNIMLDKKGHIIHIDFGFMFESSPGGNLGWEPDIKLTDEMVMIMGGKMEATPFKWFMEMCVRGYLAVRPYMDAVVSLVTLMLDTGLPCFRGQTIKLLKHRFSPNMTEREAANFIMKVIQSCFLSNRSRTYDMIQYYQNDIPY

`Cc1cc(-n2c(=O)ccc3cnc4ccc(-c5cnn(C)c5)cc4c32)ccc1-c1ccc(C(=O)NC2CCN(C)CC2)cc1`: the EC50 was 150 nM in [1] and above 1250 nM in data set [3]. Also, in data set [2], the IC50 amounted to 283 nM.
With `O=C(O)c1ccc(-c2ccc(-n3c(=O)ccc4cnc5ccc(-c6cnc7ccccc7c6)cc5c43)cc2C(F)(F)F)cc1`, the EC50 in data set [1] is 20 nM; in data set [3] it was above 300 nM. The compound also came in with an IC50 in [2] of 22.9 nM.
`CN1CCC(NC(=O)c2ccc(-c3ccc(-n4c(=O)ccc5cnc6ccc(-c7cnc(N)nc7)cc6c54)cc3C(F)(F)F)cc2)CC1`: the results for the EC50 in [1] and in [3] were 10 nM and 1000 nM, respectively. In [2], this compound displayed an IC50 of 43.2 nM.
`Cc1cc(-n2c(=O)ccc3cnc4ccc(-c5ccc(N)nc5)cc4c32)ccc1-c1ccc(C(=O)NC2CCN(C)CC2)cc1`: the values for the EC50 in data set [1] and in data set [3] were 50 nM and above 1250 nM, respectively. Moreover, the IC50 in data set [2] is 39.8 nM.
For the compound `O=c1ccc2cnc3ccc(-c4cnc5ccccc5c4)cc3c2n1-c1ccc(-c2ccc(CO)cc2)c(C(F)(F)F)c1`, the EC50 in [1] is 30 nM; in data set [3], above 300 nM. This compound showed an IC50 in data set [2] of 17.3 nM.
For the compound `CN1CCC(NC(=O)c2ccc(-c3ccc(-n4c(=O)ccc5cnc6ccc(-c7cnc8ccccc8c7)cc6c54)cc3C(F)(F)F)cc2)CC1`, the inhibition in data set [4], in data set [18], in data set [20] and in data set [23] was 80% each time. The IC50 is 170 nM in [5]; 21.7 nM in [2]; 1110 nM in data set [6]; 922 nM in data set [8]; above 10000 nM in [13]; 3.01 nM in data set [15]. Besides, the IC50 turned out to be 437 nM in data set [16] and 3440 nM in data set [22]. In data set [1], the EC50 came out at 5 nM. Also, the results for the AUC(0-inf) in data set [7] and in [11] were 1410 ng·h/mL and 1390 ng·h/mL, respectively. This compound registered an inhibition at 10 µM in data set [9] of 61%. Also, the Vd in data set [10] was 1.95 L/kg. Also, in data set [12], the clearance amounted to 11.9 mL/min/kg. The compound also yielded a bioavailability in data set [14] of 10.1%. Also, the results for the half-life in data set [17] and in [25] were 3.61 h and 0.767 h, respectively. In [19], the Tmax was 4 h. The Cmax in data set [21] was found to be 191 ng/mL; in [24] it was 1410 ng/mL.
As for `COC(=O)c1ccc(-c2ccc(-n3c(=O)ccc4cnc5ccc(-c6cnc7ccccc7c6)cc5c43)cc2C(F)(F)F)cc1`, the figures for the EC50 in data set [1] and in data set [3] were 200 nM and above 300 nM, respectively. This compound also had an IC50 in data set [2] of 299 nM.
The matching figures for `NC(=O)c1ccc(-c2ccc(-n3c(=O)ccc4cnc5ccc(-c6cnc7ccccc7c6)cc5c43)cc2C(F)(F)F)cc1`: 25 nM, above 300 nM and 56.3 nM.
As to `CNC(=O)c1ccc(-c2ccc(-n3c(=O)ccc4cnc5ccc(-c6cnc7ccccc7c6)cc5c43)cc2C(F)(F)F)cc1`, the EC50 in [1] was 15 nM; in data set [3], above 300 nM. The compound also registered an IC50 in data set [2] of 10.2 nM.
For `Cc1cc(-n2c(=O)ccc3cnc4ccc(-c5cnc6[nH]ccc6c5)cc4c32)ccc1-c1ccc(C(=O)NC2CCN(C)CC2)cc1`, the EC50 in data set [1] turned out to be 25 nM; in data set [3], 1000 nM. In addition, in data set [2], the IC50 is 18.9 nM.
`CN1CCC(NC(=O)c2ccc(-c3ccc(-n4c(=O)ccc5cnc6ccc(-c7cn[nH]c7)cc6c54)cc3C(F)(F)F)cc2)CC1`: the results for the EC50 in [1] and in data set [3] were 10 nM and 1000 nM, respectively. Besides, in [2], half-maximal inhibition (IC50) was put at 14.1 nM.
As for `Cc1cc(-n2c(=O)ccc3cnc4ccc(-c5cn[nH]c5)cc4c32)ccc1-c1ccc(C(=O)NC2CCN(C)CC2)cc1`, the EC50 was 150 nM in data set [1] and above 1250 nM in [3]. In data set [2], this compound registered an IC50 of 38.1 nM.
The matching figures for `O=c1ccc2cnc3ccc(-c4cnc5ccccc5c4)cc3c2n1-c1ccc(-c2ccc(COC3CCCCO3)cc2)c(C(F)(F)F)c1` (stereo not drawn): 25 nM, above 300 nM and 188 nM.
As for `Cc1cc(-n2c(=O)ccc3cnc4ccc(-c5cnc6ccccc6c5)cc4c32)ccc1-c1ccc(C(=O)NC2CCN(C)CC2)cc1`, the figures for the EC50 in data set [1] and in data set [3] were 1 nM and 1000 nM, respectively. The same compound had a 50% inhibitory concentration (IC50) in [2] of 14.5 nM. Besides, the AUC(0-inf) in data set [7] was determined as 391 ng·h/mL; in data set [11] it was 737 ng·h/mL. In addition, testing at 10 µM in data set [9] gave an inhibition of 34%. Moreover, in [10], the Vd was found to be 1.82 L/kg. This compound returned a clearance in data set [12] of 22.6 mL/min/kg. The compound further yielded a bioavailability in data set [14] of 5.4%. Also, the half-life was 1.85 h in data set [17] and 0.7 h in data set [25]. The Tmax in data set [19] worked out at 1 h. For the same compound, the Cmax amounted to 115 ng/mL in data set [21] and 1050 ng/mL in data set [24].
For `CCC(=O)N1CCN(c2ccc(-n3c(=O)ccc4cnc5ccc(-c6cnc7ccccc7c6)cc5c43)cc2C(F)(F)F)CC1` [TORIN1], the AUC(0-inf) in data set [7] stood at 396 ng·h/mL; in data set [11], 720 ng·h/mL. In data set [26], this compound gave a Vdss of 0.59 L/kg. Moreover, the Tmax in data set [27] was determined as 0.25 h. Also, the Cmax was determined as 223 ng/mL in data set [28] and 2757 ng/mL in data set [29].
For `Cc1cc(-n2c(=O)ccc3cnc4ccccc4c32)ccc1-c1ccc(C(=O)NC2CCN(C)CC2)cc1`, the results for the EC50 in data set [1] and in data set [3] were above 1000 nM and above 1250 nM, respectively. Besides, the IC50 in data set [2] is above 3000 nM.
